Reference: ChEMBL document CHEMBL2016512, “Calcitonin gene-related peptide (CGRP) receptor antagonists: novel aspartates and succinates” (Bioorg Med Chem Lett, 2012)

Key:
[1] = biological target: T1, Calcitonin gene-related peptide type 1 receptor (Homo sapiens, UniProt O60894+Q16602); assay: Displacement of [125]CGRP from human CGRP receptor expressed in human SK-N-MC cell membrane after 2 hrs by scintillation counting; type: cell membranes
[2] = biological target: T1, Calcitonin gene-related peptide type 1 receptor; assay: Antagonist activity at human CGRP receptor expressed in human SK-N-MC cells assessed as inhibition of CGRP-stimulated cAMP production; type: functional, cell-based
Caco-2 = assay: Permeability across human Caco2 cells; type: ADME, cell-based
[3] = Solubility of the compound; type: physicochemical
[4] = Aqueous solubility of the compound; type: physicochemical; conditions: buffer

T1 sequence (Q16602 whole entry, one chain of several): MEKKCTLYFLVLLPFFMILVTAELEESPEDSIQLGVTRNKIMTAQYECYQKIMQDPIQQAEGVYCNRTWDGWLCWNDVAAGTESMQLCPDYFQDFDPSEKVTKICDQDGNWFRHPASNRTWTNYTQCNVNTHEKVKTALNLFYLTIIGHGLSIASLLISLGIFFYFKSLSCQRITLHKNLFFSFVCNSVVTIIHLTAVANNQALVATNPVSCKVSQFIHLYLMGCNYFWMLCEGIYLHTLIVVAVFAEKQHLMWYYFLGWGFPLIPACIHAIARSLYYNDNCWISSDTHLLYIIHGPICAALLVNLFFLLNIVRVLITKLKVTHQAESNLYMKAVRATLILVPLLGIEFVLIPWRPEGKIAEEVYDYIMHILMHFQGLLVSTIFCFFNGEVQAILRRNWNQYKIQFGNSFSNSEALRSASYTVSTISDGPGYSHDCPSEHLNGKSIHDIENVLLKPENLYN

Row | Structure (SMILES) | IC50 [1] | IC50 [2] | permeability (Caco-2) | solubility [3] | solubility [4]
1 | O=C(C[C@H](Nc1cccc2ncccc12)C(=O)N1CCC(N2CCCCC2)CC1)N1CCC(N2Cc3ccccc3NC2=O)CC1 | 890 nM |  |  |  | 
2 | O=C(C[C@H](NCc1ccccn1)C(=O)N1CCC(N2CCCCC2)CC1)N1CCC(N2Cc3ccccc3NC2=O)CC1 | 700 nM |  |  |  | 
3 | O=C(C[C@H](Nc1cccc2ccccc12)C(=O)N1CCC(N2CCCCC2)CC1)N1CCC(N2Cc3ccccc3NC2=O)CC1 | 220 nM |  |  |  | 
4 | Cc1cc(CC(CC(=O)N2CCC(N3Cc4ccccc4NC3=O)CC2)C(=O)N2CCC3(CC2)OCCO3)cc2cn[nH]c12 (racemic) | 3.2 nM | 5.8 nM |  |  | 
5 | Cc1cc(CC(CC(=O)N2CCC3(CC2)OC(=O)Nc2ccccc23)C(=O)N2CCCCC2)cc2cn[nH]c12 (racemic) | 19 nM | 34 nM |  |  | 
6 | Cc1nc(N[C@@H](CC(=O)N2CCC(N3Cc4ccccc4NC3=O)CC2)C(=O)N2CCC(N3CCCCC3)CC2)nc2nn[nH]c12 | 73 nM | 120 nM |  |  | 
7 | Cc1cc(CC(CC(=O)N2CCC(N3Cc4ccccc4NC3=O)CC2)C(=O)N2CCC(C)CC2)cc2cn[nH]c12 (racemic) | 2.7 nM | 2 nM |  |  | 
8 | Cc1cc(CC(CC(=O)N2CCC3(CC2)OC(=O)Nc2ccccc23)C(=O)N2CCC3(CC2)OCCO3)cc2cn[nH]c12 (racemic) | 5.9 nM | 8.8 nM |  |  | 
9 | O=C(C[C@H](NC1CCC(O)CC1)C(=O)N1CCC(N2CCCCC2)CC1)N1CCC(N2Cc3ccccc3NC2=O)CC1 (stereo not given in full) | 4500 nM |  |  |  | 
10 | Cc1cc(CC(CC(=O)N2CCC3(CC2)OC(=O)Nc2ccccc23)C(=O)N2CCC(N3CCCCC3)CC2)cc2cn[nH]c12 (racemic) | 0.33 nM | 0.7 nM |  |  | 
11 | O=C(Nc1ccccc1Cl)N[C@@H](CC(=O)N1CCC(N2Cc3ccccc3NC2=O)CC1)C(=O)N1CCC(N2CCCCC2)CC1 |  | 100 nM | impermeable | Insoluble | 
12 | Cc1cc(C[C@H](CC(=O)N2CCC(N3Cc4cccc(F)c4NC3=O)CC2)C(=O)N2CCC(N3CCCCC3)CC2)cc2cn[nH]c12 | 6.7 nM | 4.6 nM | impermeable |  | Insoluble
13 | Cc1cc(C[C@@H](CC(=O)N2CCC(N3Cc4cccc(F)c4NC3=O)CC2)C(=O)N2CCC(N3CCCCC3)CC2)cc2cn[nH]c12 | 0.2 nM | 0.082 nM | impermeable |  | Insoluble
14 | O=C1Nc2ccccc2C2(CCN(C(=O)CC(Cc3ccc4[nH]ncc4c3)C(=O)N3CCC4(CC3)OCCO4)CC2)O1 (racemic) | 460 nM |  |  |  | 
15 | O=C(C[C@H](Nc1cc(Cl)ncn1)C(=O)N1CCC(N2CCCCC2)CC1)N1CCC(N2Cc3ccccc3NC2=O)CC1 | 98 nM | 46 nM |  |  | 
16 | O=C(C[C@H](Nc1ccc(Cl)cc1[N+](=O)[O-])C(=O)N1CCC(N2CCCCC2)CC1)N1CCC(N2Cc3ccccc3NC2=O)CC1 | 32 nM | 32 nM |  |  | 
17 | Cc1cc(CC(CC(=O)N2CCC(N3Cc4ccccc4NC3=O)CC2)C(=O)N2CCC(N3CCCCC3)CC2)cc2cn[nH]c12 (racemic) | 0.074 nM | 0.068 nM |  |  | 
18 | O=C1Nc2ccccc2C2(CCN(C(=O)CC(Cc3ccc4[nH]ncc4c3)C(=O)N3CCC(N4CCCCC4)CC3)CC2)O1 (racemic) | 15 nM | 53 nM |  |  | 
19 | O=C(C[C@H](Nc1nc(Cl)nc2[nH]ncc12)C(=O)N1CCC(N2CCCCC2)CC1)N1CCC(N2Cc3ccccc3NC2=O)CC1 | 250 nM | 99 nM |  |  | 
20 | O=C(Nc1ccccc1F)N[C@@H](CC(=O)N1CCC(N2Cc3ccccc3NC2=O)CC1)C(=O)N1CCC(N2CCCCC2)CC1 | 45 nM |  | impermeable | Insoluble | 

Row | Structure (SMILES) | IC50 [1] | IC50 [2] | permeability (Caco-2) | solubility [3] | solubility [4]
21 | O=C(Nc1cccc(Cl)c1Cl)N[C@@H](CC(=O)N1CCC(N2Cc3ccccc3NC2=O)CC1)C(=O)N1CCC(N2CCCCC2)CC1 | 97 nM |  | impermeable | Insoluble | 
22 | O=C(C[C@H](Nc1ccc2[nH]ccc2c1)C(=O)N1CCC(N2CCCCC2)CC1)N1CCC(N2Cc3ccccc3NC2=O)CC1 | 180 nM | 59 nM |  |  | 
23 | Cc1cc(C[C@H](CC(=O)N2CCC(N3Cc4ccccc4NC3=O)CC2)C(=O)N2CCC(N3CCCCC3)CC2)cc2cn[nH]c12 | 11 nM | 11 nM | impermeable |  | Insoluble
24 | Cc1cc(C[C@@H](CC(=O)N2CCC(N3Cc4ccccc4NC3=O)CC2)C(=O)N2CCC(N3CCCCC3)CC2)cc2cn[nH]c12 | 0.06 nM | 0.019 nM | impermeable |  | Insoluble
25 | Cc1cc(CC(CC(=O)N2CCC(c3cc4ccccc4[nH]c3=O)CC2)C(=O)N2CCC(N3CCCCC3)CC2)cc2cn[nH]c12 (racemic) | 0.3 nM | 0.12 nM |  |  | 
26 | Cc1cc(CC(CC(=O)N2CCC(N3Cc4ccccc4NC3=O)CC2)C(=O)N2CCCCC2)cc2cn[nH]c12 (racemic) | 3.7 nM | 6.9 nM |  |  | 
27 | O=C(Nc1ccc(Cl)cc1Cl)N[C@@H](CC(=O)N1CCC(N2Cc3ccccc3NC2=O)CC1)C(=O)N1CCC(N2CCCCC2)CC1 | 36 nM |  | impermeable | Insoluble | 
28 | CC(C)(C)OC(=O)N[C@@H](CC(=O)N1CCC(N2Cc3ccccc3NC2=O)CC1)C(=O)N1CCC(N2CCCCC2)CC1 | 590 nM |  |  |  | 
29 | O=C(C[C@H](NCc1ccc2[nH]ncc2c1)C(=O)N1CCC(N2CCCCC2)CC1)N1CCC(N2Cc3ccccc3NC2=O)CC1 | 130 nM | 300 nM |  |  | 
30 | O=C(C[C@H](NCc1ccc2[nH]ccc2c1)C(=O)N1CCC(N2CCCCC2)CC1)N1CCC(N2Cc3ccccc3NC2=O)CC1 | 380 nM |  |  |  | 
31 | Cc1cc(CC(CC(=O)N2CCC3(CC2)NC(=O)Nc2ccccc23)C(=O)N2CCC(N3CCCCC3)CC2)cc2cn[nH]c12 (racemic) | 0.34 nM | 0.35 nM |  |  | 
32 | O=C(C[C@H](Nc1ccc(Br)c2ccccc12)C(=O)N1CCC(N2CCCCC2)CC1)N1CCC(N2Cc3ccccc3NC2=O)CC1 | 120 nM |  |  |  | 
33 | O=C(C[C@H](Nc1ccc2[nH]ncc2c1)C(=O)N1CCC(N2CCCCC2)CC1)N1CCC(N2Cc3ccccc3NC2=O)CC1 | 170 nM | 230 nM |  |  | 
34 | Cc1cc(CC(CC(=O)N2CCC(N3Cc4cccc(F)c4NC3=O)CC2)C(=O)N2CCC(N3CCCCC3)CC2)cc2cn[nH]c12 (racemic) | 0.18 nM | 0.089 nM |  |  | 
35 | O=C(N[C@@H](CC(=O)N1CCC(N2Cc3ccccc3NC2=O)CC1)C(=O)N1CCC(N2CCCCC2)CC1)c1ccc(F)c(F)c1 | 430 nM |  |  |  | 
36 | Cc1nc(N[C@@H](CC(=O)N2CCC(N3Cc4ccccc4NC3=O)CC2)C(=O)N2CCC(N3CCCCC3)CC2)nc(N)c1[N+](=O)[O-] | 80 nM |  |  |  | 
37 | O=C(N[C@@H](CC(=O)N1CCC(N2Cc3ccccc3NC2=O)CC1)C(=O)N1CCC(N2CCCCC2)CC1)Oc1ccccc1 | 280 nM |  |  |  | 
38 | O=C(CC(Cc1ccc2[nH]ncc2c1)C(=O)N1CCC2(CC1)OCCO2)N1CCC(N2Cc3ccccc3NC2=O)CC1 (racemic) | 87 nM | 320 nM |  |  | 
39 | O=C(C[C@H](Nc1ccncn1)C(=O)N1CCC(N2CCCCC2)CC1)N1CCC(N2Cc3ccccc3NC2=O)CC1 | 1400 nM |  |  |  | 
40 | Cc1cc(CC(CC(=O)N2CCC(n3cc(-c4ccccc4)[nH]c3=O)CC2)C(=O)N2CCC(N3CCCCC3)CC2)cc2cn[nH]c12 (racemic) | 0.15 nM | 0.049 nM |  |  | 
